We go through two molecules from patent US11667649B2, “Heteroaromatic macrocyclic ether chemotherapeutic agents” (Nuvalent, Inc., priority 2020, dated 2023).

Series [1] deals with ROS1-positive NSCLC. The following applies: treatment of ROS1-positive NSCLC; cited from earlier work.
For series [2] the following is noted: from CCc1nn(C)c(Cc2cccnc2-c2ccc(F)cc2COc2cc(Br)cnc2N)c1Br; cc_pd bond; 12-membered ring; B2pin2/Pd(OAc)2/cataCXium A/CsF; MeOH/H2O; 17.0 mM; 80.0 °C; 5.0 h.
Series [3] concerns TPM3-NTRK1-wt IC50 / primary target (e.g. CD74-ROS1-wt) IC50, Ba/F3 cells. Briefly: Cell assay TRKA selectivity (TRKA potency divided by primary target potency). The format is cell-based. Put shortly: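 Ratio of TRKA to primary-target cellular IC50 (e.g. TPM3-NTRK1-wt/CD74-ROS1-wt), grouped into bins A >30, B >10, C ≥1, D <1. Each IC50 came from engineered Ba/F3 fusion lines grown without IL-3, dosed for 72 h and read as CellTiter-Glo luminescence, with a four-parameter logistic fit.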

`C[C@@H](Oc1cc(-c2cnn(C3CCNCC3)c2)cnc1N)c1c(Cl)ccc(F)c1Cl` [Crizotinib, crizotinib]: in series [1], the median progression-free survival was 9-19 months and the overall response rate is reported as 60-80%.
`CCc1nn(C)c2c1-c1cnc(N)c(c1)OCc1cc(F)ccc1-c1ncccc1C2` [Example 170, 3-ethyl-17-fluoro-5-methyl-21-oxa-4,5,12,24-tetraazapentacyclo[20.3.1.0^2,^6.0^8,^13.0^14,^19]hexacosa-1(25),2(6),3,8(13),9,11,14,16,18,22(26),23-undecaen-23-amine] yielded a ring closure, yield after HPLC in series [2] of 3.3%. For the same molecule, in series [3] (TRKA selectivity ratio: TPM3-NTRK1-wt IC50 / CD74-ROS1-G2032R IC50, Ba/F3 cells), the TPM3-NTRK1-wt/CD74-ROS1-G2032R entry is given as “A (bin A for very high selectivity, ratio>30-fold)”. For the same molecule, in series [3] (TRKA selectivity ratio: TPM3-NTRK1-wt IC50 / CD74-ROS1-wt IC50, Ba/F3 cells), the TPM3-NTRK1-wt/CD74-ROS1-wt result was “A (bin A for very high selectivity, ratio>30-fold)”. For the same molecule, the TPM3-NTRK1-wt/EML4-ALK-L1196M-G1202R entry in series [3] (TRKA selectivity ratio: TPM3-NTRK1-wt IC50 / EML4-ALK-L1196M-G1202R IC50, Ba/F3 cells) is reported as “B (bin B for high selectivity, ratio>10-fold)”. Besides, the TPM3-NTRK1-wt/EML4-ALK-wt entry in series [3] (TRKA selectivity ratio: TPM3-NTRK1-wt IC50 / EML4-ALK-wt IC50, Ba/F3 cells) is recorded as “A (bin A for very high selectivity, ratio>30-fold)”.
